pEC50: −log10 of the molar value. “Also recorded” adds a separate entry of the source. Read-outs that look alike come from different tables or passages of the source.
Experiments:
[1] = tested on: human peripheral blood mononuclear cells; test: cytokine/chemokine induction in human PBMCs (multiplexed bead array immunoassays); format: cell-based
Procedure: Immunoassays for Cytokines:
Fresh human peripheral blood mononuclear cells (hPBMC) were isolated from human blood obtained by venipuncture with informed consent and as per institutional guidelines on Ficoll-Hypaque gradients. Aliquots of PBMCs (10^5 cells in 100 μL/well) were stimulated for 12 h with graded concentrations of test compounds. Supernatants were isolated by centrifugation, and were assayed in triplicates using analyte-specific multiplexed cytokine/chemokine bead array assays. PBMC supernatants were also analyzed for 41 chemokines and cytokines (EGF, Eotaxin, FGF-2, Fit-3 ligand, Fractalkine, G-CSF, GM-CSF, GRO, IFN-α2, IFN-γ, IL-10, IL-12 (p40), IL-12 (p70), IL-13, IL-15, IL-17, IL-1ra, IL-1α, IL-1β, IL-2, IL-3, IL-4, IL-5, IL-6, IL-7, IL-8, IL-9, IP-10, MCP-1, MCP-3, MDC (CCL22), MIP-1α, MIP-1β, PDGF-AA, PDGF-AB/BB, RANTES, TGFα, TNF-α, TNF-β, VEGF, sCD40L) using a magnetic bead-based multiplexed assay kit (Milliplex MAP Human Cytokine/Chemokine kit). Data were acquired and processed on a MAGPIX instrument (EMD Millipore, Billerica, Mass.) with an intra-assay coefficients of variation ranging from 4-8% for the 41 analytes.

human TLR8 = molecular target: T1, human TLR8 (Homo sapiens, UniProt Q9NR97); test: human TLR8-specific HEK-Blue reporter gene assay (NF-κB induction); format: cell-based; details: for EC50 / Agonistic Activity EC50 (μM) TLR8: human TLR8-specific reporter gene assays, Table 1; for EC50: read-out: Agonistic Activity EC50 (μM) TLR8; for TLR8 agonistic activity: TLR8 primary screen; for pEC50: cell-based TLR8-specific NF-κB transactivation assay, read-out: TLR8 agonistic potency EC50
T1 construct: HEK293 cells stably co-transfected with the appropriate hTLR, MD2, and secreted alkaline phosphatase (sAP); expressed in transfected cells; host or cells: HEK293 (HEK-Blue™)
T1 sequence (Q9NR97 27-1041): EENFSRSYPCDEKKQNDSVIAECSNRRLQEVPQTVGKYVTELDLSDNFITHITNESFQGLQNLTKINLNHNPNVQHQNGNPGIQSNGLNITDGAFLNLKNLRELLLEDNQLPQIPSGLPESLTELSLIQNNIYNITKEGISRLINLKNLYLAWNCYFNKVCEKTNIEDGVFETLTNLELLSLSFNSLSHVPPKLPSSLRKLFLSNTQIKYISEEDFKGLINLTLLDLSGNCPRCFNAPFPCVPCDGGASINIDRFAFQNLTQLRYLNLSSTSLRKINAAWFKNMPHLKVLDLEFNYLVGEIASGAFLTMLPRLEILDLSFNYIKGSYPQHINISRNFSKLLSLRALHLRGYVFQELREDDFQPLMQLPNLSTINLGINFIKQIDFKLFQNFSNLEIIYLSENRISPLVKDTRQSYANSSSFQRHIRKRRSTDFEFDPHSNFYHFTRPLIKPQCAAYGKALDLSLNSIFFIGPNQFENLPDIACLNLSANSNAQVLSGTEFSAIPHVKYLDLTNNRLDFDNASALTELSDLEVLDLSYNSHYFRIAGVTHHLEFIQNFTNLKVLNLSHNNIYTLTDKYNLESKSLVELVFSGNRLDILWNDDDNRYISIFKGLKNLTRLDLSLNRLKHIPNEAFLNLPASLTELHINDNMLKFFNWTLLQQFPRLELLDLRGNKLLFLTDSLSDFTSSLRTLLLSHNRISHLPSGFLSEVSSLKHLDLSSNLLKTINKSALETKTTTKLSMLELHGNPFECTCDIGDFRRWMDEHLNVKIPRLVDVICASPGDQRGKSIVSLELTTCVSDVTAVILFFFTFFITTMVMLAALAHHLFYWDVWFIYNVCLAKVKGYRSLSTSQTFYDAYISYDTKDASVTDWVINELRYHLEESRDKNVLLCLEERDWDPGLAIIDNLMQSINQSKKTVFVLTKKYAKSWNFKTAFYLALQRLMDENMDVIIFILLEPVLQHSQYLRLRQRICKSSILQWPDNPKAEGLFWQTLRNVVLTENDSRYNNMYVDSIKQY
Source text: (§1) Human TLR2/-3/-4/-5/-7/-8/-9 Reporter Gene Assays (NF-κB Induction):
(§2) The induction of NF-κB was quantified using human TLR2/-3/-4/-5/-7/-8/-9-specific HEK-Blue™ reporter gene assays as previously described. HEK293 cells stably co-transfected with the appropriate hTLR, MD2, and secreted alkaline phosphatase (sAP), were maintained in HEK-Blue™ Selection medium containing zeocin and normocin. Stable expression of secreted alkaline phosphatase (sAP) under control of NF-κB/AP-1 promoters is inducible by appropriate TLR agonists, and extracellular sAP in the supernatant is proportional to NF-κB induction.

[2] = tested on: human TLR2, TLR3, TLR4, TLR5, TLR7, TLR9, TLR10, Nod1 and Nod2; test: counter-screens in reporter cell lines specific for other human TLRs and Nod1/2; format: cell-based
Source text: as §1, §2

whole human blood = test: proinflammatory cytokine induction in human blood; format: cell-based; details: FIGS. 6A-6D, Compound 2 as reference
human ex vivo blood = details: transcriptomal profiling
[3] = tested on: human natural killer cells; test: CD69 upregulation by flow cytometry in whole human blood; format: cell-based; details: 16.5 h, FIG. 8
Procedure: Flow-Cytometric Immunostimulation Experiments:
CD69 upregulation was determined by flow cytometry. Briefly, heparin-anticoagulated whole blood samples were obtained by venipuncture from healthy human volunteers with informed consent and as per guidelines approved by the University of Kansas Human Subjects Experimentation Committee. […] Negative (endotoxin free water) controls were included in each experiment. Following incubation, 200 μL aliquots of anticoagulated whole blood were stained with 20 µL of fluorochrome-conjugated antibodies at 37° C. in the dark for 30 min. For triple color flow cytometry experiments, CD3-PE, CD56-APC, CD69-PE-Cy7 were used to analyze CD69 activation of each of the main peripheral blood lymphocyte populations: natural killer lymphocytes (NK cells: CD3^−CD56^+), cytokine-induced killer phenotype (CIK cells: CD3^+CD56^+), nominal B lymphocytes (CD3^−CD56^−), and nominal T lymphocytes (CD3^+CD56^−). Following staining, erythrocytes were lysed and leukocytes fixed in one step by mixing 200 μL of the samples in 4 mL pre-warmed Whole Blood Lyse/Fix Buffer (Becton-Dickinson Biosciences, San Jose, Calif.). After washing the cells twice at 200 g for 8 minutes in saline, the cells were transferred to a 96-well plate. […]

[4] = tested on: human TLR2/3/4/5/7/8/9 and NOD1/2; test: primary screens: panel of reporter gene assays for TLR and NOD modulatory activities; details: human TLR2/3/4/5/7/8/9 and NOD1/2 reporter gene assays
Source text: as §1, §2

TLR7/TLR8 = details: background statement; cited from earlier work

Compound: CCCCc1nc2c(N)nc3ccccc3c2n1Cc1ccccc1 [1-benzyl-2-butyl-1H-imidazo[4,5-c]quinolin-4-amine]
- induction of G-CSF, GRO, MIP-1α and MIP-1β ([1]; 41-analyte multiplexed assay, human PBMCs, FIG. 9): did not

Compound: CCCCOc1cc2ccccc2nc1N [Compound 6, 3-(Butyloxy)quinolin-2-amine]
- EC50 (human TLR8): 2.18 µM
- activity in counter-screens / specificity for human TLR8 [2]: specific for human TLR8

Compound: CCCCCOc1cc2ccccc2nc1N [Compound 6d, 3-(Pentyloxy)quinolin-2-amine]
- EC50 (human TLR8): 7 µM

Compound: CCCCCCOc1cc2ccccc2nc1N [Compound 6e, 3-(Hexyloxy)quinolin-2-amine]
- EC50 (human TLR8): 50 µM

Compound: CC(C)COc1cc2ccccc2nc1N [Compound 6g, 3-(Isobutyloxy)quinolin-2-amine]
- EC50 (human TLR8): 50 µM

Compound: CC(C)CCOc1cc2ccccc2nc1N [Compound 6h, 3-(Isopentyloxy)quinolin-2-amine]
- EC50 (human TLR8): 50 µM

Compound: CCCCNc1cc2ccccc2nc1N [Compound 9, N^3-Butylquinoline-2,3-diamine]
- EC50 (human TLR8): 4.28 µM
- activity in counter-screens / specificity for human TLR8 [2]: specific for human TLR8

Compound: CCCCSc1cc2ccccc2nc1N [Compound 12, 3-(Butylthio)quinolin-2-amine]
- activity in counter-screens / specificity for human TLR8 [2]: specific for human TLR8

Compound: CCCCCc1cc2ccccc2nc1N [Compound 14b, 3-Pentylquinolin-2-amine]
- cytokine/chemokine induction profile ([1]; human PBMCs as well as whole human blood, FIGS. 3A-3T): induction of a specific set of chemokines and proinflammatory cytokines, including interleukins 12 and 18

Compound: CCCCCCc1cc2ccccc2nc1N [Compound 14c, 3-Hexylquinolin-2-amine]
- Agonistic Activity EC50 (μM) TLR8 (human TLR8): Inactive

Compound: CCC/C=C/c1cc2ccccc2nc1N [Compound 14d, (E)-3-(Pent-1-en-1-yl)quinolin-2-amine]
- EC50 (human TLR8): 2.67 µM

Compound: CCCC#Cc1cc2ccccc2nc1N [Compound 14f, 3-(Pent-1-yn-1-yl)quinolin-2-amine]
- EC50 (human TLR8): 13 µM

Compound: CCCCCc1c(N)nc2ccccc2c1C [Compound 21a, 4-Methyl-3-pentylquinolin-2-amine]
- Agonistic Activity EC50 (μM) TLR8 (human TLR8): Inactive^a

Compound: CCCCCc1c(N)nc2ccccc2c1CC [Compound 21b, 4-Ethyl-3-pentylquinolin-2-amine]
- Agonistic Activity EC50 (μM) TLR8 (human TLR8): Inactive

Compound: CCCCCc1c(N)nc2ccccc2c1CCC(C)C [Compound 21c, 4-Isopentyl-3-pentylquinolin-2-amine]
- Agonistic Activity EC50 (μM) TLR8 (human TLR8): Inactive

Compound: CCCCOc1cc(N)nc2ccccc12 [Compound 24a, 4-(Butyloxy)quinolin-2-amine]
- Agonistic Activity EC50 (μM) TLR8 (human TLR8): Inactive

Compound: CCCCCOc1cc(N)nc2ccccc12 [Compound 24b, 4-(Pentyloxy)quinolin-2-amine]
- Agonistic Activity EC50 (μM) TLR8 (human TLR8): Inactive

Compound: CCCCc1cc(N)nc2ccccc12 [Compound 27a, 4-Butylquinolin-2-amine]
- Agonistic Activity EC50 (μM) TLR8 (human TLR8): Inactive

Compound: CCCCCc1cc(N)nc2ccccc12 [Compound 27b, 4-Pentylquinolin-2-amine]
- Agonistic Activity EC50 (μM) TLR8 (human TLR8): Inactive

Compound: Nc1nc2ccccc2c2ccoc12 [Compound A8a, furo[2,3-c]quinolin-4-amine]
- TLR8 agonistic activity (human TLR8): inactive

Compound: Cc1cc2c(o1)c(N)nc1ccccc12 [Compound A8b, 2-methylfuro[2,3-c]quinolin-4-amine]
- TLR8 agonistic activity (human TLR8): lower agonistic potencies

Compound: CCCc1cc2c(o1)c(N)nc1ccccc12 [Compound A8c, 2-propylfuro[2,3-c]quinolin-4-amine]
- TLR8 agonistic activity (human TLR8): lower agonistic potencies

Compound: CCCCc1cc2c(o1)c(N)nc1ccccc12 [Compound A8d, 2-butylfuro[2,3-c]quinolin-4-amine]
- induction of TNF-α, IL-1β, IL-6 and IL-8 (whole human blood): induce TNF-α, IL-β, IL-6 and IL-8 in a dose-dependent manner, albeit with a lower potency than Compound 2
- IFN-α transcription (human ex vivo blood): induced only by Compound 2
- induction of proinflammatory cytokine transcripts (human ex vivo blood): strong induction of proinflammatory cytokine transcripts (including IL-12 and IL-18)
- CD69 expression on natural killer lymphocytes [3]: absence of natural killer lymphocyte activation; also recorded: absence of CD69 upregulation

Compound: CCCCCc1cc2c(o1)c(N)nc1ccccc12 [Compound A8e, 2-pentylfuro[2,3-c]quinolin-4-amine]
- TLR8 agonistic activity (human TLR8): lower agonistic potencies

Compound: CCCCCCc1cc2c(o1)c(N)nc1ccccc12 [Compound A8f, 2-hexylfuro[2,3-c]quinolin-4-amine]
- TLR8 agonistic activity (human TLR8): lower agonistic potencies

Compound: Nc1nc2ccccc2c2cc(-c3ccccc3)oc12 [Compound A8n, 2-phenylfuro[2,3-c]quinolin-4-amine]
- TLR8 agonistic activity (human TLR8): inactive

Compound: Nc1nc2ccccc2c2cc(Cc3ccccc3)oc12 [Compound A8o, 2-benzylfuro[2,3-c]quinolin-4-amine]
- TLR8 agonistic activity (human TLR8): inactive

Compound: Nc1nc2ccccc2c2cc(CCCO)oc12 [Compound A8r, 3-(4-aminofuro[2,3-c]quinolin-2-yl)propan-1-ol]
- TLR8 agonistic activity (human TLR8): do not display TLR8 agonism

Compound: CC(C)CC(O)c1cc2c(o1)c(N)nc1ccccc12 (centres unmarked) [Compound A8u, 1-(4-aminofuro[2,3-c]quinolin-2-yl)-3-methylbutan-1-ol]
- TLR8 agonistic activity (human TLR8): do not display TLR8 agonism

Compound: CC(O)Cc1cc2c(o1)c(N)nc1ccccc12 (centres unmarked) [Compound A8v, 1-(4-aminofuro[2,3-c]quinolin-2-yl)propan-2-ol]
- TLR8 agonistic activity (human TLR8): do not display TLR8 agonism

Compound: CCOCCc1cc2c(o1)c(N)nc1ccccc12 [Compound A8w, 2-(2-ethoxyethyl)furo[2,3-c]quinolin-4-amine]
- activity in primary screens (reporter gene panel) [4]: none of these compounds were active in any primary screens

Compound: NCc1cc2c(o1)c(N)nc1ccccc12 [Compound A8x, 2-(aminomethyl)furo[2,3-c]quinolin-4-amine]
- activity in primary screens (reporter gene panel) [4]: none of these compounds were active in any primary screens

Compound: NCCc1cc2c(o1)c(N)nc1ccccc12 [Compound A8y, 2-(2-aminoethyl)furo[2,3-c]quinolin-4-amine]
- activity in primary screens (reporter gene panel) [4]: none of these compounds were active in any primary screens

Compound: CCCCc1cc2c(nc(N)c3ccccc32)o1 [Compound A18, 2-butylfuro[2,3-c]isoquinolin-5-amine]
- TLR8 agonistic activity (human TLR8): inactive

Compound: CCCc1cc2ccnc(N)c2o1 [Compound A28a, 2-propylfuro[2,3-c]pyridin-7-amine]
- TLR8 agonistic activity (human TLR8): retained TLR8-selective agonistic activities; also recorded: feeble activity
- pEC50 (human TLR8): 4.61

Compound: CCCCc1cc2ccnc(N)c2o1 [Compound A28b, 2-butylfuro[2,3-c]pyridin-7-amine]
- TLR8 agonistic activity (human TLR8): retained TLR8-selective agonistic activities; also recorded: feeble activity
- pEC50 (human TLR8): 4.34

Compound: CCCN(CCC)C(=O)C1=Cc2ccc(-c3ccc(C(=O)N4CCCC4)cc3)cc2N=C(N)C1 [VTX-2337]
- TLR7/TLR8 agonism profile described (TLR7/TLR8): mixed TLR7/TLR8-agonism

— US10654807B2, “Toll-like receptor 8 agonists” (The University Of Kansas, priority 2013, dated 2020)
